# Reference: publication PMC9011347, “Small-Molecule Inhibitors Targeting Lipolysis in Human Adipocytes” (Journal of the American Chemical Society, 2022)
# Key:
# Assay in all cases: TAG hydrolase assay, chimeric ATGL variants
# Type in all cases: biochemical, human and mouse
# [1] = test system: c8 (mouse ATGL containing aa 60–146 of human ATGL); settings: variant c8, NG-497 (10 μM) or Atglistatin (10 μM)
# Experimental: (§1) Figure 5 Analysis of chimeric proteins comprising human and mouse ATGL. (a) Schematic view of the minimal active domain of wild-type and chimeric ATGL variants (c1–c9). Nonidentical aa are indicated in blue and red for mouse and human ATGL, respectively. ATGL variants were expressed in Expi293 cells and TAG hydrolase activity was determined in cell lysates in the presence or absence of NG-497 (10 μM) and Atglistatin (10 μM), respectively. Inhibition of ATGL variants by respective inhibitors (tick mark) and lack of inhibition (cross) is indicated at the right edge. The expression of all ATGL variants was confirmed by Western blotting analysis (Figure S6). (b) Dose-dependent inhibition of human ATGL (aa 1–288) and c1 (human aa 1–158 and mouse aa 159–288) by NG-497. (c) Dose-dependent inhibition of mouse ATGL (aa 1–288) and c2 (mouse aa 1–158 and human aa 159–288) by Ai. IC50 values are shown in the insets. Data are presented as relative inhibition of respective DMSO controls and are indicated as mean ± SD. (d) 3D homology model of the minimal active domain of mouse ATGL (M1–L254) depicted as a cartoon. Residues 1–178 are in blue, and residues 179–254 are in gray. S47 and D166 comprising the active site are represented as green sticks. T101, C106, R109, N111, and S133 are colored in orange, A60, N68, I69, T93, C97, and T146 are colored in magenta. TEXT PRINTED IN THE PICTURE: (b) NG-497: IC50 [μM] (human): 1.3±0.1; IC50 [μM] (c1): 1.3±0.1 | (b) Ai: IC50 [μM] (human): n.det.; IC50 [μM] (c1): n.det. | (c) NG-497: IC50 [μM] (mouse): n.det.; IC50 [μM] (c2): n.det. | (c) Ai: IC50 [μM] (mouse): 2.5±0.3; IC50 [μM] (c2): 2.4±0.1 […]
# (§2) We next generated variants by further stepwise humanization of c2. Variant c3 containing aa 1–23 of human ATGL was inhibited by Ai but not NG-497 (Figure 5a). […] Finally, variants of mouse ATGL containing aa 1–146 (c7) and 60–146 (c8) of human ATGL were inhibited by NG-497 but not Ai (Figure 5a).
# (§3) Experimental details, materials, and methods
# (§4) Expression of recombinant ATGL constructs and preparation of cell lysates. Expi293 cells were cultivated in Expi293 Expression Medium (GIBCO, Thermo Fisher Scientific, Waltham, USA) at standard conditions (37°C, 5% CO2, 95% humidified atmosphere, 125 rpm). DNA constructs containing ATGL from different species and chimeric ATGL variants in pcDNA3.1(+)myc-His C Vector were obtained from BioCat GmbH (Heidelberg, Germany). Cells were transfected with ExpiFectamine293 Transfection Kit (GIBCO) in Opti-Mem reduced serum medium (GIBCO) according to the manufacturer’s instructions. After 48 h, cells were harvested by centrifugation and washed three times with PBS. Cells were disrupted in buffer A (0.25 M sucrose, 1 mM EDTA, 1 mM dithiothreitol, 20µg/ml leupeptin, 2 µg/ml antipain, 1 µg/ml pepstatin, pH 7.0) by sonication (Virsonic 475, Virtis, Gardiner, USA). Nuclei and debris were removed by centrifugation at 1,000 g and 4°C for 10 min. Protein concentrations were determined using Bio-Rad protein assay (Bio-Rad 785, Bio-Rad Laboratories, Munich, Germany) using BSA as standard.
# (§5) Expression and purification of mouse CGI-58. CGI-58 was expressed and purified as described 1. In brief, the coding sequence of mouse Cgi-58 was cloned into pHis-Sumo and co-transformed with the plasmid pTf16 expressing the chaperone Tig into E. coli BL21(DE3). Cells were cultured overnight at 37°C and 180 rpm in the presence of 40 µg/ml kanamycin and 34 µg/ml chloramphenicol. Thereafter, cells were transferred into fresh LB medium, grown until OD600 of 0.6, and expression was induced by the addition of 0.5 mM IPTG. After overnight incubation at 30°C, cells were harvested at 4,500 x g and 4°C for 20 min, washed in 1x PBS, and resuspended in lysis buffer (20 mM Tris/HCl pH 7.8, 300 mM NaCl, 30 mM imidazole, 0.1% IGEPAL CA-630, 3.5 mM β-mercaptoethanol, 20 µg/ml leupeptin, 2 µg/ml antipain and 1 µg/ml pepstatin). Cells were incubated with 1 […]
# [2] = molecular target: T1, c7 (mouse ATGL containing aa 1–146 of human ATGL) (Mus musculus, UniProt Q8BJ56, A60V/C106S/C97F/G96S/H22Y/I23V/I69F/K7T/N111S/N68K/R109H/S133N/T101V/T146G/T6K/T93I); settings: variant c7, NG-497 (10 μM) or Atglistatin (10 μM)
# T1 construct: host or cells: Expi293 cells, cell lysate
# Experimental: as §1, §2, §3, §4, §5
# [3] = molecular target: T2, Variant c3 containing aa 1–23 of human ATGL (Homo sapiens, UniProt Q96AD5, F69I/F97C/G146T/H109R/I93T/K68N/N133S/S106C/S111N/S158T/S96G/V101T/V60A); settings: variant c3, NG-497 (10 μM) or Atglistatin (10 μM)
# T2 construct: host or cells: Expi293 cells, cell lysate
# Experimental: as §1, §2, §3, §4, §5
# T2 sequence (Q96AD5 1-288 V60A/K68N/F69I/I93T/S96G/F97C/V101T/S106C/H109R/S111N/N133S/G146T/S158T): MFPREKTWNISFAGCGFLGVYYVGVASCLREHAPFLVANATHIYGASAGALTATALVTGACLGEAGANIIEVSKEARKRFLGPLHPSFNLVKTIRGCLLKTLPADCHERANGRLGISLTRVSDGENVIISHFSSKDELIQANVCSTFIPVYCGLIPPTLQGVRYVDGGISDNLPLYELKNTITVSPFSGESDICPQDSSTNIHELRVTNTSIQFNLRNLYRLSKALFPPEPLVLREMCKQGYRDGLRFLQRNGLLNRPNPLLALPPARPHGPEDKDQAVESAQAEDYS
# T1 sequence (Q8BJ56 1-288 with the stated changes limits assumed): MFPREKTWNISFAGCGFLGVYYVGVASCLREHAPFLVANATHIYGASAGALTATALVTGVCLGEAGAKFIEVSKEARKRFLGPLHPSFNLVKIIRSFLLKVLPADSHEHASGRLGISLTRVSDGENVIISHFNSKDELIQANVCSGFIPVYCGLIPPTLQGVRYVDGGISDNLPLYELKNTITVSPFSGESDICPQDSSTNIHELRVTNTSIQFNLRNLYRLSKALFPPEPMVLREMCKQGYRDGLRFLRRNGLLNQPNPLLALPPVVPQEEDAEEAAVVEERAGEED
Compound,inhibition of TAG hydrolase activity [1],inhibition of TAG hydrolase activity [2],inhibition of TAG hydrolase activity [3]
CCOc1ccc(-c2cc(OC)cc(C(=O)OC(C)C)n2)cc1 [NG-497],inhibited,inhibited,
"CN(C)C(=O)Nc1cccc(-c2ccc(N(C)C)cc2)c1 [Atglistatin, reference compound]",,,inhibited
